Reference: article PMC11923213, “Structural characterization reveals substrate recognition by the taurine transporter TauT” (Cell Discovery, 2025)
Positions count from the first letter of the chain named.

What was measured:
Type in all cases: cell-based
[1] = target: T1, TauT (taurine transporter, SLC6A6; TauT^WT) (Homo sapiens, UniProt P31641); assay: Xenopus laevis oocytes, β-alanine-induced inward current
T1 construct: wild-type TauT expressed in Xenopus laevis oocytes for electrophysiology; cryo-EM sample details only in supplement
T1 sequence (P31641 1-620): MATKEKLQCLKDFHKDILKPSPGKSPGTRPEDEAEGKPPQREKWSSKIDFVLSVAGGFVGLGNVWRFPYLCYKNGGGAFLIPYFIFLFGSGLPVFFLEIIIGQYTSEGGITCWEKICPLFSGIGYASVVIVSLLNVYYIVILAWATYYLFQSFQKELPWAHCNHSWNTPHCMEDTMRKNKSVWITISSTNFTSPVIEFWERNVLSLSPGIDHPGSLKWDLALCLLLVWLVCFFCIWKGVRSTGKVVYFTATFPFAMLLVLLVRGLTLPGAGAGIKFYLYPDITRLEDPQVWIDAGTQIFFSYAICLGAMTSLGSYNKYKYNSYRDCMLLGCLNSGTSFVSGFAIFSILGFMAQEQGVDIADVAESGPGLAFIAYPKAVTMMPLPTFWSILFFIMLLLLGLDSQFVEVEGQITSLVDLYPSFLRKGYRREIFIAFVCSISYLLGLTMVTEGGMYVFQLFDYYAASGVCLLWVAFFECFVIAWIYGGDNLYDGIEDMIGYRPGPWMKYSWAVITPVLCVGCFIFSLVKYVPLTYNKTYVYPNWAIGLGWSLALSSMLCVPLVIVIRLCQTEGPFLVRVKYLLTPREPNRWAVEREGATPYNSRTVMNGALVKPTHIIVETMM

[2] = target: T1, TauT (taurine transporter, SLC6A6; TauT^WT); assay: two-electrode voltage clamp in Xenopus laevis oocytes, taurine-induced inward current
[3] = target: T2, TauT (taurine transporter, SLC6A6) (Homo sapiens, UniProt P31641, E406T); assay: Xenopus laevis oocytes, taurine-induced inward current
T2 construct: wild-type TauT expressed in Xenopus laevis oocytes for electrophysiology; cryo-EM sample details only in supplement
T2 sequence (P31641 1-620 E406T): T1 sequence (P31641 1-620) with E406T

Row | EC50 [1] [µM] | EC50 [2] [µM] | EC50 [3] [µM] | SMILES
1 | 5.6 | – | – | NCCC(=O)O [β-alanine]
2 | – | 2.9 | 50.3 | NCCS(=O)(=O)O [taurine]
